Where two headings read alike, the source gives them in different places.
Columns and labels:
human M2 receptor [1] = target: T1, human M2 receptor (Homo sapiens, UniProt P08172); conditions: for Efficiency: boosting of the acetylcholine effect at EC20 acetylcholine concentration
T1 sequence (P08172 1-466): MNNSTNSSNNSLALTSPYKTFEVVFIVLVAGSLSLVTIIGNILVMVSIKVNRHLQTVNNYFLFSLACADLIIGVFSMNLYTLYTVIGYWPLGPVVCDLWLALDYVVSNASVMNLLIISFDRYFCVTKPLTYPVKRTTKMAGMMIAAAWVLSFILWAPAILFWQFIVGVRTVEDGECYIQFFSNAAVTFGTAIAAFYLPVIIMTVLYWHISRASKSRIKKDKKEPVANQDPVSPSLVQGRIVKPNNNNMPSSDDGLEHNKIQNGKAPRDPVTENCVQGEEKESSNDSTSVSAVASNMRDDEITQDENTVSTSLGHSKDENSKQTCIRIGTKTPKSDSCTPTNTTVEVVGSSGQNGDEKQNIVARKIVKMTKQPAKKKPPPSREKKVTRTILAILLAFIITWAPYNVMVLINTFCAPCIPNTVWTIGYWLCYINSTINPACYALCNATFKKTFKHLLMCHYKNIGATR

human M2 receptor [2] = target: T1, human M2 receptor; type: cell-based; conditions: α >1 = positive cooperativity
[3] = Receptor activity EC50, M2-GIRK1/4 activation test, acetylcholine at EC20, allosteric potency, in some cases mean values from two or more determinations
[4] = shift in the acetylcholine dose-response curve (Allosteric EC50 shift, GraphPad PRISM)
[5] = Receptor activity EC50, allosteric potency at EC20 acetylcholine, M2-GIRK1/4 reporter cells, in some cases mean of two or more determinations
[6] = shift of acetylcholine dose-response curve (Allosteric EC50 shift)
[7] = read-out: Efficiency, boosting of the acetylcholine effect at EC20 acetylcholine concentration, M2-GIRK1/4 reporter cells

| SMILES | EC50 (human M2 receptor [1]; [3]) [nM] | Cooperativity (alpha factor) (human M2 receptor [2]; [4]) | EC50 (human M2 receptor [1]; [5]) [nM] | Cooperativity (alpha factor) (human M2 receptor [2]; [6]) | further results |
| --- | --- | --- | --- | --- | --- |
| CCC(COC(F)(F)F)NC(=O)c1cn(-c2c(F)cc(F)cc2F)c2nc(N3C[C@@H](O)[C@H](O)C3)ccc2c1=O (single isomer, unassigned) [Example 578] | – | – | 17 | 29 | Efficiency (human M2 receptor [1]; M2-GIRK1/4 reporter cells): 100.0% |
| CC(C)(C)[C@H](NC(=O)c1cn(-c2c(F)cc(F)cc2F)c2nc(N3C[C@@H](O)[C@H](O)C3)ccc2c1=O)C(F)(F)F [Example 369, 7-[(3R,4R)-3,4-Dihydroxypyrrolidin-1-yl]-4-oxo-N-[(2S)-1,1,1-trifluoro-3,3-dimethylbutan-2-yl]-1-(2,4,6-trifluorophenyl)-1,4-dihydro-1,8-naphthyridine-3-carboxamide] | 8 | 39 | – | – | Emax (human M2 receptor [1]; read-out: Efficiency): 95% |
| CC(C)(NC(=O)c1cn(-c2c(F)cc(F)cc2F)c2nc(N3C[C@@H](O)CC3=O)ccc2c1=O)C(F)F [Example 516, N-(1,1-Difluoro-2-methylpropan-2-yl)-7-[(4S)-4-hydroxy-2-oxopyrrolidin-1-yl]-4-oxo-1-(2,4,6-trifluorophenyl)-1,4-dihydro-1,8-naphthyridine-3-carboxamide] | – | – | 20 | 35 | Emax (human M2 receptor [1]; [7]): 100% |
| CN(CC(=O)O)c1ccc2c(=O)c(C(=O)N[C@@H](C3CC3)C(F)(F)F)cn(-c3c(F)cc(F)cc3F)c2n1 [Example 385, N-[6-{[(1S)-1-Cyclopropyl-2,2,2-trifluoroethyl]carbamoyl}-5-oxo-8-(2,4,6-trifluorophenyl)-5,8-dihydro-1,8-naphthyridin-2-yl]-N-methylglycine] | 68 | 11 | – | – | – |
| O=C(NC12CCC(F)(CC1)CC2)c1cn(-c2ccc(F)cc2F)c2nc(NCC(F)(F)F)ccc2c1=O [Example 97, 1-(2,4-Difluorophenyl)-N-(4-fluorobicyclo[2.2.2]oct-1-yl)-4-oxo-7-[(2,2,2-trifluoroethyl)amino]-1,4-dihydro-1,8-naphthyridine-3-carboxamide] | 209 | 9 | – | – | – |
| O=C(NC(c1ccccc1Cl)C(F)(F)F)c1cn(-c2ccccc2F)c2nc(N3CCC(O)C3=O)ccc2c1=O (racemic) [Example 287, N-[1-(2-Chlorophenyl)-2,2,2-trifluoroethyl]-1-(2-fluorophenyl)-7-[3-hydroxy-2-oxopyrrolidin-1-yl]-4-oxo-1,4-dihydro-1,8-naphthyridine-3-carboxamide] | 145 | 24 | – | – | – |
| CC(C)C[C@@H](NC(=O)c1cn(-c2c(F)cc(F)cc2F)c2nc(N3C[C@@H](O)[C@@H](O)C3)ccc2c1=O)C(F)(F)F [Example 574, 7-[(3R,4S)-3,4-Dihydroxypyrrolidin-1-yl]-4-oxo-N-[(2R)-1,1,1-trifluoro-4-methylpentan-2-yl]-1-(2,4,6-trifluorophenyl)-1,4-dihydro-1,8-naphthyridine-3-carboxamide] | – | – | 12 | 36 | Emax (human M2 receptor [1]; [7]): 100% |
| CCC(NC(=O)c1cn(-c2c(F)cc(F)cc2F)c2nc(N3C[C@@H](O)CC3=O)ccc2c1=O)C(F)(F)C(F)(F)F (single isomer, unassigned) [Example 521] | – | – | – | 72 | Efficiency (human M2 receptor [1]; M2-GIRK1/4 reporter cells): 100.0%; EC50 (human M2 receptor [1]; read-out: Receptor activity EC50, allosteric potency at EC20 acetylcholine, M2-GIRK1/4 reporter cells, in some cases mean of two or more determinations): 2 nM |
| CO[C@H]1CCN(c2ccc3c(=O)c(C(=O)N[C@@H](C4CC4)C(F)(F)F)cn(-c4c(F)cc(F)cc4F)c3n2)C1 [Example 535, N-[(1 S)-1-Cyclopropyl-2,2,2-trifluoroethyl]-7-[(3S)-3-methoxypyrrolidin-1-yl]-4-oxo-1-(2,4,6-trifluorophenyl)-1,4-dihydro-1,8-naphthyridine-3-carboxamide] | – | – | 7 | 27 | Emax (human M2 receptor [1]; [7]): 100% |
| O=C(Nc1c(Cl)cccc1Cl)c1cn(-c2ccc(F)cc2F)c2nc(NCC(F)(F)F)ccc2c1=O [Example 163, N-(2,6-Dichlorophenyl)-1-(2,4-difluorophenyl)-4-oxo-7-[(2,2,2-trifluoroethyl)amino]-1,4-dihydro-1,8-naphthyridine-3-carboxamide] | 173 | 13 | – | – | – |
| O=C(NC12CC3CC(CC(C3)C1)C2)c1cn(-c2ccc(F)cc2F)c2nc(N3CCC3=O)ccc2c1=O [Example 168] | 60 | 13 | – | – | – |
| O=C(NC12CC3CC(CC(C3)C1)C2)c1cn(-c2ccc(F)cc2F)c2nc(NCC(F)(F)F)ccc2c1=O [Example 90, 1-(2,4-Difluorophenyl)-4-oxo-N-(tricyclo[3.3.1.1^3,7]dec-1-yl)-7-[(2,2,2-trifluoroethyl)amino]-1,4-dihydro-1,8-naphthyridine-3-carboxamide] | 298 | 11 | – | – | – |
| CC(C)C[C@H](NC(=O)c1cn(-c2c(F)cc(F)cc2F)c2nc(N3C[C@@H](O)[C@@H](O)C3)ccc2c1=O)C(F)(F)F [Example 573, 7-[(3R,4S)-3,4-Dihydroxypyrrolidin-1-yl]-4-oxo-N-[(2S)-1,1,1-trifluoro-4-methylpentan-2-yl]-1-(2,4,6-trifluorophenyl)-1,4-dihydro-1,8-naphthyridine-3-carboxamide] | – | – | 12 | 57 | Emax (human M2 receptor [1]; [7]): 100% |

Continued, in another order:

| EC50 (human M2 receptor [1]; [3]) [nM] | Cooperativity (alpha factor) (human M2 receptor [2]; [4]) | EC50 (human M2 receptor [1]; [5]) [nM] | Cooperativity (alpha factor) (human M2 receptor [2]; [6]) | SMILES | further results |
| --- | --- | --- | --- | --- | --- |
| 21 | 18 | – | – | O=C(NC(c1c(F)cccc1F)C(F)(F)F)c1cn(-c2ccc(F)cc2F)c2nc(N3CC[C@H](F)C3)ccc2c1=O (mixture of isomers) [Example 241, 1-(2,4-Difluorophenyl)-N-[1-(2,6-difluorophenyl)-2,2,2-trifluoroethyl]-7-[(3S)-3-fluoropyrrolidin-1-yl]-4-oxo-1,4-dihydro-1,8-naphthyridine-3-carboxamide] | – |
| 263 | 15 | – | – | CC[C@@H](NC(=O)c1cn(-c2ccc(F)cc2F)c2nc(N3CCC(C)(OC)C3=O)ccc2c1=O)C(F)(F)F (single isomer, unassigned) [Example 199] | – |
| 28 | 15 | – | – | CCC(NC(=O)c1cn(-c2ccc(F)cc2F)c2nc(N(C)CCF)ccc2c1=O)C(F)(F)F (racemic) [Example 104, rac-1-(2,4-Difluorophenyl)-7-[(2-fluoroethyl)(methyl)amino]-4-oxo-N-[1,1,1-trifluorobutan-2-yl]-1,4-dihydro-1,8-naphthyridine-3-carboxamide] | – |
| 60 | 7 | – | – | CC[C@@H](NC(=O)c1cn(-c2ccc(F)cc2F)c2nc(N3CCC(C)(OC)C3)ccc2c1=O)C(F)(F)F (mixture of isomers) [Example 191, 1-(2,4-Difluorophenyl)-7-[3-methoxy-3-methylpyrrolidin-1-yl]-4-oxo-N-[(2R)-1,1,1-trifluorobutan-2-yl]-1,4-dihydro-1,8-naphthyridine-3-carboxamide] | – |
| 54 | 9 | – | – | CC[C@@H](NC(=O)c1cn(-c2ccc(F)cc2F)c2nc(N3CCCC3)ccc2c1=O)C(F)(F)F [Example 192, 1-(2,4-Difluorophenyl)-4-oxo-7-(pyrrolidin-1-yl)-N-[(2R)-1,1,1-trifluorobutan-2-yl]-1,4-dihydro-1,8-naphthyridine-3-carboxamide] | – |
| 40 | 13 | – | – | CC[C@@H](NC(=O)c1cn(-c2ccc(F)cc2F)c2nc(N3C[C@@H](F)C[C@H]3C)ccc2c1=O)C(F)(F)F [Example 31, 1-(2,4-Difluorophenyl)-7-[(2R,4S)-4-fluoro-2-methylpyrrolidin-1-yl]-4-oxo-N-[(2R)-1,1,1-trifluorobutan-2-yl]-1,4-dihydro-1,8-naphthyridine-3-carboxamide] | – |
| – | – | 39 | 30 | CC[C@@H](NC(=O)c1cn(-c2c(F)cccc2F)c2nc(N3C[C@@H](O)[C@H](O)C3)ccc2c1=O)C(F)(F)F [Example 618, 1-(2,6-Difluorophenyl)-7-[(3R,4R)-3,4-dihydroxypyrrolidin-1-yl]-4-oxo-N-[(2R)-1,1,1-trifluorobutan-2-yl]-1,4-dihydro-1,8-naphthyridine-3-carboxamide] | Emax (human M2 receptor [1]; [7]): 99% |
| – | – | 6 | 16 | CC[C@H](NC(=O)c1cn(-c2c(F)cc(F)cc2Cl)c2nc(N3CCC(C)C3=O)ccc2c1=O)C(F)(F)F (mixture of isomers) [Example 422, 1-(2-Chloro-4,6-difluorophenyl)-7-[3-methyl-2-oxopyrrolidin-1-yl]-4-oxo-N-[(2S)-1,1,1-trifluorobutan-2-yl]-1,4-dihydro-1,8-naphthyridine-3-carboxamide] | Emax (human M2 receptor [1]; [7]): 79% |
| 65 | 31 | – | – | CC[C@@H](NC(=O)c1cn(-c2c(F)cccc2F)c2nc(N3CCC(O)C3=O)ccc2c1=O)C(F)(F)F (single isomer, unassigned) [Example 294] | – |

From US20190367516A1 (Bayer Pharma Aktiengesellschaft, priority 2015, published 2019)
